Assays:
[1] = tested on: sepsis by cecal ligation and puncture (CLP); test: CLP sepsis model: survival, bacterial load, plasma BUN; format: in vivo, mice; conditions: for survival: monitored 7 days, vs vehicle
Experimental: WT and P2X4R^−/− mice were injected with 10 mg/kg ivermectin or its vehicle and subjected to CLP. The survival of mice was monitored for 7 days *P<0.05-P2X4R^−/− injected with vehicle (n=21) vs. WT injected with vehicle (n=25); ***P<0.001—WT injected with ivermectin (n=20); vs. WT injected with vehicle (n=25). In FIGS. 3B and 3C bacterial burden was determined by counting the number of CFUs on blood agar plates after serial dilution of blood and peritoneal lavage samples. Blood and lavage fluid were collected at 16 hours after CLP. *P<0.05 vs. veh (veh and 10 mg/kg ivermectin; n=10 and 9, respectively. In FIG. 3D BUN was determined from plasma of ivermectin- or vehicle-treated mice 16 hours after CLP. *P<0.05. Veh and 10 mg/kg ivermectin; n=10 and 9, respectively. FIGS. 3E and 3F show ivermectin increasing intracellular killing of E. coli in cultured macrophages. Peritoneal macrophages were infected with E. coli for 90 minutes and then pulsed with ATP for 5 minutes. ATP was then removed and the macrophages were incubated with ivermectin for 30 minutes. Thereafter the ivermectin was removed and the cells were incubated in medium containing gentamicin for another 2 hours. The cells were then lysed and serial dilutions of intracellular content were spread onto LB agar plates. *P<0.05 (n=5-6); **P<0.01 (n=5-6). Data are expressed as mean±SEM. All results are representatives of three experiments.
From these studies, it was believed that pharmacological activation of P2X4Rs would have an effect opposite to that of inactivating these receptors genetically; that is that the pharmacological activation of P2X4Rs would be protective. To examine this, mice were injected with ivermectin, an anti-helminth drug that is a partial allosteric activator of P2X4Rs (Khakh et al. J Neurosci 1999 19:7289-7299) 90 minutes after performing CLP. […] Furthermore, ivermectin potentiated the ATP stimulation of bacterial killing in macrophages in vitro (FIGS. 3E and 3F).
Male C57B16/J rmce were anesthetized using Nembutal, and a 2-cm midline laparotomy was performed to allow exposure of the cecum with adjoining intestine. Approximately two-thirds of the cecum was tightly ligated with a 3.0 silk suture, and the ligated part of the cecum was perforated twice (through and through) with a 20-gauge needle. […] The mice were resuscitated with 1 ml of physiological saline injected subcutaneously and returned to their cages with free access to food and water, and survival was monitored for 7 days (p<0.05). Survival curves were analyzed using two-tailed Fisher's exact test.
Bacterial load in mice subjected to CLP was measured at 16 h after surgery. Dilutions of blood or peritoneal lavage fluid were cultured on tryptose blood agar plates, and the number of bacterial colonies was counted. […]

[2] = tested on: peritoneal macrophages; test: Intracellular killing of E. coli by peritoneal macrophages (gentamicin protection, CFU count); format: cell-based, murine; conditions: for effect on ATP-stimulated E. coli killing: antagonist pretreatment 30 min before 5 min ATP pulse
Experimental: FIGS. 1A through 1K show ATP augments bacterial killing in macrophages in a P2X4R-dependent fashion. […] Peritoneal macrophages from WT and P2X7R^−/− mice were infected with E. coli (FIG. 1A) or with S. aureus (FIG. 1B) for 90 minutes, which was followed by pulsing the cells with ATP for 5 minutes. Subsequently, after a 2-hour incubation with 400 ng/ml gentamicin, the macrophages were lysed and serial dilutions of their intracellular content were spread onto LB agar plates. *P<0.05; **P<0.01 vs. E. coli; n=5-6. FIG. 1C and FIG. 1D show ATP augments bacterial killing independently of adenosine. Macrophages from WT and CD39^−/− mice were infected with E. coli, pulsed with ATP (FIG. 1C) or adenosine (FIG. 1D), and then incubated with gentamicin for 2 hours, which was followed by intracellular CFU counting. *P<0.05; **P<0.01 vs. E. coli; n=4-6. […] Peritoneal macrophages were isolated from WT mice and RNA was extracted from untreated cells. RNA was transcribed and quantitative PCRs were conducted. n=6. FIGS. 1F through 1K show P2X4Rs are responsible for the ATP-stimulated increase in bacterial killing in macrophages. Peritoneal macrophages were infected with E. coli for 90 min, pretreated with (FIG. 1F) P2X4R antagonist (5-BDBD) or (FIG. 1G) P2X7R antagonist (A438079) for 30 minutes before an ATP pulse for 5 minutes, and then incubated with gentamicin for 2 hours. Killing was determined at the end of this incubation period. *P<0.05; ***P<0.001 vs. E. coli treatment; ^##P<0.01 vs. ATP/E. coli treatment; n=5-6. In FIG. 1H, macrophages were transfected with scrambled siRNA- or P2X4 siRNA, and the effect of ATP on bacterial killing determined. **P<0.01 vs. E. coli treatment; n=6. In FIG. 1I, peritoneal macrophages from WT and P2X4R^−/− mice were infected with E. coli, pulsed with ATP, incubated with gentamicin for 2 hours and then bacterial killing was determined. **P<0.01 vs. E. coli treatment; n=6. In FIGS. 1J and 1K, phorbol 12-myristate 13-acetate (PMA)-differentiated human monocytic THP-1 cells were infected with E. coli for 90 minutes, exposed to ATP for 5 minutes and then killing was determined as described above for peritoneal macrophages (FIG. 1J). In other experiments, THP-1 cells were infected with E. coli, pretreated with 5-BDBD or vehicle for 30 minutes before a 5-minutes ATP pulse (FIG. 1K), two hours after which intracellular CFUs were determined. **P<0.01; vs. E. coli treatment; ^##P<0.01 vs. ATP/E. coli treatment. n=6-7. Data are expressed as mean±SEM. All results are representatives of three experiments.
Naive, thioglycollate-elicited murine peritoneal macrophages were treated with E. coli (K-12 strain) at 1:15 cell:bacteria ratio in vitro and incubated for 90 minutes to allow for phagocytosis to occur. After 90 minutes, the cells were washed to remove non-phagocytosed bacteria and treated with increasing concentrations (0.1 to 3 μM) of ATP or adenosine for 5 minutes. After 5 minutes, the medium was removed and the cells were washed extensively.
New medium was added that was supplemented with 100 μg/mL gentamicin. This allowed the maturation of the phagosome and killing of the phagocytosed bacteria. The cells were incubated for approximately 2 hours at 37° C. After incubation, the cells were washed 5 times to remove the gentamicin and were lysed. Colony forming units (CPUs) were determined after an overnight incubation on agar.

[3] = tested on: murine polymicrobial sepsis; conditions: injected ATP; cited from earlier work
[4] = tested on: human monocytic THP-1 cells; test: Intracellular killing of E. coli by PMA-differentiated THP-1 cells; format: cell-based
Experimental: (§1) FIGS. 1A through 1K show ATP augments bacterial killing in macrophages in a P2X4R-dependent fashion. […] Peritoneal macrophages from WT and P2X7R^-/- mice were infected with E. coli (FIG. 1A) or with S. aureus (FIG. 1B) for 90 minutes, which was followed by pulsing the cells with ATP for 5 minutes. Subsequently, after a 2-hour incubation with 400 ng/ml gentamicin, the macrophages were lysed and serial dilutions of their intracellular content were spread onto LB agar plates. *P<0.05; **P<0.01 vs. E. coli; n=5-6. FIG. 1C and FIG. 1D show ATP augments bacterial killing independently of adenosine. […] RNA was transcribed and quantitative PCRs were conducted. n=6. […] Killing was determined at the end of this incubation period. *P<0.05; ***P<0.001 vs. E. coli treatment; ^##P<0.01 vs. ATP/E. coli treatment; n=5-6. In FIG. 1H, macrophages were transfected with scrambled siRNA- or P2X4 siRNA, and the effect of ATP on bacterial killing determined. **P<0.01 vs. E. coli treatment; n=6. In FIG. 1I, peritoneal macrophages from WT and P2X4R^-/- mice were infected with E. coli, pulsed with ATP, incubated with gentamicin for 2 hours and then bacterial killing was determined. **P<0.01 vs. E. coli treatment; n=6. […] Data are expressed as mean±SEM. […]

[5] = tested on: peritoneal macrophages; test: Intracellular killing of S. aureus by peritoneal macrophages (CFU count); format: cell-based, mice; conditions: WT and P2X7R−/− macrophages; S. aureus 90 min, ATP pulse 5 min
Experimental: as §1

Compound: 22,23-dihydroavermectin [ivermectin]
- plasma BUN levels ([1]; 16 hours after CLP, 10 mg/kg ivermectin vs vehicle): diminished plasma BUN levels
- survival ([1]; P2X4R−/− mice, 10 mg/kg ivermectin, CLP): failed to improve survival
- survival ([1]; WT mice, 10 mg/kg ivermectin 90 minutes after CLP): improved survival
- bacterial burden (CFUs) ([1]; blood and peritoneal lavage, 16 hours after CLP, 10 mg/kg ivermectin vs vehicle): decreased bacteria
- ATP stimulation of bacterial killing in macrophages ([2]; E. coli 90 min, ATP pulse 5 min, then ivermectin 30 min, gentamicin 2 h): potentiated

Compound: Nc1ncnc2c1ncn2[C@@H]1O[C@H](COP(=O)(O)OP(=O)(O)OP(=O)(O)O)[C@@H](O)[C@H]1O [ATP, adenosine triphosphate]
- macrophage-mediated bacterial killing [3]: augments macrophage-mediated bacterial killing
- killing of E. coli ([4]; ATP 5 min): increased killing of E. coli
- intracellular bacterial killing (S. aureus) [5]: increases intracellular bacterial killing
- killing of E. coli ([2]; WT and P2X7R−/− macrophages, E. coli 90 min, ATP pulse 5 min, gentamicin 2 h): increased killing of E. coli
- killing of E. coli ([2]; macrophages from P2X4R−/− mice, ATP pulse): failed to stimulate E. coli killing
- killing of E. coli ([2]; macrophages from WT littermate controls, ATP pulse): dose-dependent increase in killing
- killing of E. coli ([2]; macrophages lacking CD39 (CD39−/−), ATP pulse): also killed E. coli
- stimulatory effect of ATP on E. coli killing ([2]; macrophages with P2X4R silencing vs scrambled control): largely reversed

Compound: O=C1CN=C(c2cccc(Br)c2)c2oc3ccccc3c2N1 [P2X4R antagonist]
- effect on ATP-stimulated E. coli killing ([4]; antagonist 30 min before 5 min ATP pulse): inhibited the stimulatory effect of ATP on E. coli killing
- effect on ATP-stimulated E. coli killing [2]: prevented the stimulatory effect of ATP on E. coli killing

Compound: Clc1cccc(-c2nnnn2Cc2cccnc2)c1Cl [P2X7R antagonist]
- effect on ATP-stimulated E. coli killing [2]: not P2X7R antagonist (FIG. 1G) prevented the stimulatory effect of ATP

Compound: Nc1ncnc2c1ncn2[C@@H]1O[C@H](CO)[C@@H](O)[C@H]1O [adenosine]
- killing of E. coli ([2]; macrophages from WT and CD39−/− mice, adenosine pulse): failed to increase E. coli killing

Reference: patent US10806747B2, “Methods for treating infection including sepsis via P2X receptor modulation” (Rutgers, The State University of New Jersey, priority 2017, dated 2020)
